Reference: PubChem BioAssay (NCI)
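Following 48 hours of exposure in 96-well plates, responses at five concentrations were used to interpolate endpoints linearly. The concentration for full growth arrest is given as TGI.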

Columns and labels:
Test in all cases: inhibition of tumour cell growth, NCI panel, 48 h
786-0 renal = tested on: 786-0 renal
A549 NSCLC = tested on: A549 NSCLC
ACHN renal = tested on: ACHN renal
CAKI-1 renal = tested on: CAKI-1 renal
CCRF-CEM leukemia = tested on: CCRF-CEM leukemia
COLO 205 colon = tested on: COLO 205 colon
DLD-1 colon = tested on: DLD-1 colon
DMS 114 small cell lung = tested on: DMS 114 small cell lung
DMS 273 small cell lung = tested on: DMS 273 small cell lung
EKVX NSCLC = tested on: EKVX NSCLC
HCC-2998 colon = tested on: HCC-2998 colon
HCT-116 colon = tested on: HCT-116 colon
HCT-15 colon = tested on: HCT-15 colon
HL-60(TB) leukemia = tested on: HL-60(TB) leukemia
HOP-18 NSCLC = tested on: HOP-18 NSCLC
HOP-62 NSCLC = tested on: HOP-62 NSCLC
HOP-92 NSCLC = tested on: HOP-92 NSCLC
HT29 colon = tested on: HT29 colon
IGROV1 ovarian = tested on: IGROV1 ovarian
K-562 leukemia = tested on: K-562 leukemia
KM12 colon = tested on: KM12 colon
KM20L2 colon = tested on: KM20L2 colon
LXFL 529 NSCLC = tested on: LXFL 529 NSCLC
M14 melanoma = tested on: M14 melanoma
M19-MEL melanoma = tested on: M19-MEL melanoma
MALME-3M melanoma = tested on: MALME-3M melanoma
MOLT-4 leukemia = tested on: MOLT-4 leukemia
NCI-H226 lung = tested on: NCI-H226 lung
NCI-H23 lung = tested on: NCI-H23 lung
NCI-H460 lung = tested on: NCI-H460 lung
NCI-H522 lung = tested on: NCI-H522 lung
OVCAR-3 ovarian = tested on: OVCAR-3 ovarian
OVCAR-4 ovarian = tested on: OVCAR-4 ovarian
OVCAR-5 ovarian = tested on: OVCAR-5 ovarian
OVCAR-8 ovarian = tested on: OVCAR-8 ovarian
RPMI-8226 leukemia = tested on: RPMI-8226 leukemia
RXF 393 renal = tested on: RXF 393 renal
RXF-631 renal = tested on: RXF-631 renal
SF-268 CNS = tested on: SF-268 CNS
SF-295 CNS = tested on: SF-295 CNS
SF-539 CNS = tested on: SF-539 CNS
SK-MEL-2 melanoma = tested on: SK-MEL-2 melanoma
SK-MEL-28 melanoma = tested on: SK-MEL-28 melanoma
SK-MEL-5 melanoma = tested on: SK-MEL-5 melanoma
SK-OV-3 ovarian = tested on: SK-OV-3 ovarian
SN12C renal = tested on: SN12C renal
SNB-19 CNS = tested on: SNB-19 CNS
SNB-75 CNS = tested on: SNB-75 CNS
SNB-78 CNS = tested on: SNB-78 CNS
SR leukemia = tested on: SR leukemia
SW-620 colon = tested on: SW-620 colon
U251 CNS = tested on: U251 CNS
UACC-257 melanoma = tested on: UACC-257 melanoma
UACC-62 melanoma = tested on: UACC-62 melanoma
UO-31 renal = tested on: UO-31 renal

Measured: TGI

COc1cccc(NC(=O)CC(=O)N2N=C(N(CCC#N)c3ccccc3C)CC2c2ccccc2)c1 (stereo not given)
> 100 µM: all assays above
